Data on two compounds can be found in ChEMBL document CHEMBL4507319 (2021).

SMILES strings stand for the structures. Activity calls are given as the source filed them. The rule behind the calls is not given here.

For test [1], the target named is Proto-oncogene tyrosine-protein kinase receptor Ret (Homo sapiens) (UniProt P07949). Briefly: Ret(h) Eurofins kinase panel. The conditions noted are these: Compound concentration 1.0 uM.
Test [2] has as its target Serine/threonine-protein kinase MARK1 (Homo sapiens) (UniProt Q9P0L2). Briefly: MARK1(h) Eurofins kinase panel. The conditions noted are these: Compound concentration 1.0 uM.
The target in test [3] is Dual specificity protein kinase CLK2 (Homo sapiens) (UniProt P49760). Briefly: CLK2(h) Eurofins kinase panel. The conditions noted are these: Compound concentration 1.0 uM.
Test [4] has as its target T1, Serine/threonine-protein kinase DCLK3 (Homo sapiens) (UniProt Q9C098).
T1 sequence (whole entry): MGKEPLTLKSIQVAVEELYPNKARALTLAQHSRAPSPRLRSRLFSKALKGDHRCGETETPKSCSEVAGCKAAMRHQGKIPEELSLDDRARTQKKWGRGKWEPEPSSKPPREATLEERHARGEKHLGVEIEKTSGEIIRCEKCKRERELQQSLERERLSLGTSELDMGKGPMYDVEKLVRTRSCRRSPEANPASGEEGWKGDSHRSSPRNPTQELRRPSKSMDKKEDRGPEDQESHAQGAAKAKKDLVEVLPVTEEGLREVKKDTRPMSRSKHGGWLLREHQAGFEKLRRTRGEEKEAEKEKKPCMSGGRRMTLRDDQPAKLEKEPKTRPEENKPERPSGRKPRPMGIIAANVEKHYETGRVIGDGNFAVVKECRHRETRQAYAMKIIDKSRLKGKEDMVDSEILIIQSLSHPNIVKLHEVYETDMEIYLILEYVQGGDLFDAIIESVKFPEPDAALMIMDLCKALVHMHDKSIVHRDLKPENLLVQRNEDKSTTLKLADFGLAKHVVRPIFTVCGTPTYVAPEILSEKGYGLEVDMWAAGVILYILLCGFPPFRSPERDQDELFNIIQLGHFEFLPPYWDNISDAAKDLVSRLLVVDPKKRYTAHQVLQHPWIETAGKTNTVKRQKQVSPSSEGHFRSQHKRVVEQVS
Put plainly: DCAMKL3(h) Eurofins kinase panel. The conditions noted are these: Compound concentration 1.0 uM.

Test [5] concerns the target Ribosomal protein S6 kinase alpha-1 (Homo sapiens, UniProt Q15418). Put plainly: Eurofins kinase panel (RPS6KA1). The arrangement: compound concentration 1 uM.
In test [6] the target is Calcium/calmodulin-dependent protein kinase type 1B (Homo sapiens) (UniProt Q6P2M8). Put plainly: CaMKIbeta(h) Eurofins kinase panel. The conditions noted are these: Compound concentration 1.0 uM.
The target of test [7] is Protein kinase C zeta type (Homo sapiens) (UniProt Q05513). Put plainly: PKCzeta(h) Eurofins kinase panel. The conditions noted are these: Compound concentration 1.0 uM.
The test system of test [8] is SW780. Put plainly: SW780 cell line Proliferation assay. The conditions noted are these: time 3 day. In kind it is functional, Homo sapiens.
The target in test [9] is Casein kinase I isoform delta (Homo sapiens) (UniProt P48730). Put plainly: CK1delta(h) Eurofins kinase panel. The conditions noted are these: Compound concentration 1.0 uM.
For test [10], the target named is Cyclin-dependent kinase 5/CDK5 activator 1 (Homo sapiens) (UniProt Q00535+Q15078). Briefly: CDK5/p25(h) Eurofins kinase panel. In kind it is protein-complex assay. The conditions noted are these: Compound concentration 1.0 uM.
For test [11], the target named is Protein kinase C eta type (Homo sapiens) (UniProt P24723). Briefly: PKCeta (h) Eurofins kinase panel. The conditions noted are these: Compound concentration 1.0 uM.
Test [12] concerns the target T2, Dual specificity protein kinase TTK (Homo sapiens) (UniProt P33981).
T2 sequence (whole entry): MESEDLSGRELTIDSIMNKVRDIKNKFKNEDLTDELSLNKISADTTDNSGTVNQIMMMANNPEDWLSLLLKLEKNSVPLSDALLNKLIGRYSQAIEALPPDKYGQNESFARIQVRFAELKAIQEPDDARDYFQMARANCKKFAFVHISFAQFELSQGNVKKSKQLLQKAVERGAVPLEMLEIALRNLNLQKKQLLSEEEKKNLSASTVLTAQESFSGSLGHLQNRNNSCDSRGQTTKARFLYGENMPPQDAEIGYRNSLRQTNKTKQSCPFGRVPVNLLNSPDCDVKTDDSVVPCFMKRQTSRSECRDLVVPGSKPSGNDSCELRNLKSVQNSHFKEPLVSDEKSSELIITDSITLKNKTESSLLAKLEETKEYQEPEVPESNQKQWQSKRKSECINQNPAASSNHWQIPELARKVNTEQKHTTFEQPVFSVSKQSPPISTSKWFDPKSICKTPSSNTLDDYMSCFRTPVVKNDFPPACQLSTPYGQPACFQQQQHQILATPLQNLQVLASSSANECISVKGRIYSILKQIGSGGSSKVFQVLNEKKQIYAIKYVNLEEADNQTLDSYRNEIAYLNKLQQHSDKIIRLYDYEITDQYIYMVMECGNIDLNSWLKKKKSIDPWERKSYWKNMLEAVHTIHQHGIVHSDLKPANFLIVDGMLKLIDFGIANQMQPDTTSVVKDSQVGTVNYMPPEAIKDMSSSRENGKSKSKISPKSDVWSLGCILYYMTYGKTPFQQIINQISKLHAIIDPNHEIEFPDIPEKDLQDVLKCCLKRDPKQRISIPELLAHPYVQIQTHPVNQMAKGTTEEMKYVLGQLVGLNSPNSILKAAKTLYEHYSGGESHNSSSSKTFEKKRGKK
Briefly: TTK(h) Eurofins kinase panel. The conditions noted are these: Compound concentration 1.0 uM.

Test [13] relates to IMR-5/75. Put plainly: IMR-5/75 cell line Proliferation assay. In kind it is functional, Homo sapiens. The conditions noted are these: time 6 day.
Test [14] concerns the target RAC-alpha serine/threonine-protein kinase (Homo sapiens) (UniProt P31749). Put plainly: PKBalpha (h) Eurofins kinase panel. The conditions noted are these: Compound concentration 1.0 uM.
The target of test [15] is ATR/ATRIP (Homo sapiens) (UniProt Q13535+Q8WXE1). Briefly: ATR/ATRIP(h) Eurofins kinase panel. The conditions noted are these: Compound concentration 1.0 uM. In kind it is protein-complex assay.
The target of test [16] is Beta-3 adrenergic receptor (Homo sapiens) (UniProt P13945). The conditions noted are these: Compound concentration 10.0 uM.
Chain of Beta-3 adrenergic receptor (Homo sapiens) (P13945 whole entry, looked up): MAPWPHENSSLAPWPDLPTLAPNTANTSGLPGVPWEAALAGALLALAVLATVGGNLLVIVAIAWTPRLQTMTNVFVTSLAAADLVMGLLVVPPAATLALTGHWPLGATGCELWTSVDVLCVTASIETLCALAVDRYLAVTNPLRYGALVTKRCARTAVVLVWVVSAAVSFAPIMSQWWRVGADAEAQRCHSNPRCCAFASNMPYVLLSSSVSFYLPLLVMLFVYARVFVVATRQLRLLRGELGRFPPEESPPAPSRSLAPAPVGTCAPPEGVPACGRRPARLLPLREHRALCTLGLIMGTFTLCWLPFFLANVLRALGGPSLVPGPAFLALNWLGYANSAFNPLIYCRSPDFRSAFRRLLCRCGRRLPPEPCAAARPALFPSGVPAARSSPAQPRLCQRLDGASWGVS

Chain of Cyclin-dependent kinase 5/CDK5 activator 1 (Homo sapiens) (Q00535 whole entry): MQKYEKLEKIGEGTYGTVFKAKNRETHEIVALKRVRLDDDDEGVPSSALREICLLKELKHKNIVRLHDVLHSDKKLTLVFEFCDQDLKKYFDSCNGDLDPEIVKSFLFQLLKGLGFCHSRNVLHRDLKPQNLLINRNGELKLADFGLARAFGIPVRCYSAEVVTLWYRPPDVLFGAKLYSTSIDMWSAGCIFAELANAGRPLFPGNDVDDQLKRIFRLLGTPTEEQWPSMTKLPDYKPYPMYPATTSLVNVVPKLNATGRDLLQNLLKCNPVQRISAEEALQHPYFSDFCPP
Chain of Cyclin-dependent kinase 5/CDK5 activator 1 (Homo sapiens) (Q15078 99-307 partner limits assumed): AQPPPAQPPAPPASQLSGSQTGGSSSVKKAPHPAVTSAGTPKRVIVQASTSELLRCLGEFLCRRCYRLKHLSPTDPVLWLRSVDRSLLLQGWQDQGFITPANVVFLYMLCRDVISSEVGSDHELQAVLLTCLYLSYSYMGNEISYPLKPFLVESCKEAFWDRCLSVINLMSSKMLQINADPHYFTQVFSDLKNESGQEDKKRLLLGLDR
Chain of RAC-alpha serine/threonine-protein kinase (Homo sapiens) (P31749 whole entry): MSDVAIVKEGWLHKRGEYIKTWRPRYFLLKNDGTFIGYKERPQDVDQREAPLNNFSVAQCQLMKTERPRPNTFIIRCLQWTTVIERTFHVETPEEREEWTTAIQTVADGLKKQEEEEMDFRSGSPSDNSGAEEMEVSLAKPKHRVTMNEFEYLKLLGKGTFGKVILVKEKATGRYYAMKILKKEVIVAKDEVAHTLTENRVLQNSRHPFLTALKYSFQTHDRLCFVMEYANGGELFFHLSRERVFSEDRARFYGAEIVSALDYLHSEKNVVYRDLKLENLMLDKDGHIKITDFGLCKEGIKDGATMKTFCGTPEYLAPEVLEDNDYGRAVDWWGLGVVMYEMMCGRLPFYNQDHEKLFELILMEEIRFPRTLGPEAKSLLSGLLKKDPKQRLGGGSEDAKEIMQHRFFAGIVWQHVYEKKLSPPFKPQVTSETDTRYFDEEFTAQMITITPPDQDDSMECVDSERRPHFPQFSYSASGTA
Chain of Calcium/calmodulin-dependent protein kinase type 1B (Homo sapiens) (Q6P2M8 whole entry): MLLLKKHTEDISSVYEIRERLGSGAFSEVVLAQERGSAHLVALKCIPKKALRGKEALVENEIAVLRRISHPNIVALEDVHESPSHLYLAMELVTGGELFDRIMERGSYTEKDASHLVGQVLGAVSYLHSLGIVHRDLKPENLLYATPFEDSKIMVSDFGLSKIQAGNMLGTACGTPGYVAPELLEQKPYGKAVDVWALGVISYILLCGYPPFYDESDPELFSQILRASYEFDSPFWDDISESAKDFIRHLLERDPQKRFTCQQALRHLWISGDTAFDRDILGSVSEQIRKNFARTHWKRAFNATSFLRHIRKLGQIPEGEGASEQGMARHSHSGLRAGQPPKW
Chain of Proto-oncogene tyrosine-protein kinase receptor Ret (Homo sapiens) (P07949 whole entry): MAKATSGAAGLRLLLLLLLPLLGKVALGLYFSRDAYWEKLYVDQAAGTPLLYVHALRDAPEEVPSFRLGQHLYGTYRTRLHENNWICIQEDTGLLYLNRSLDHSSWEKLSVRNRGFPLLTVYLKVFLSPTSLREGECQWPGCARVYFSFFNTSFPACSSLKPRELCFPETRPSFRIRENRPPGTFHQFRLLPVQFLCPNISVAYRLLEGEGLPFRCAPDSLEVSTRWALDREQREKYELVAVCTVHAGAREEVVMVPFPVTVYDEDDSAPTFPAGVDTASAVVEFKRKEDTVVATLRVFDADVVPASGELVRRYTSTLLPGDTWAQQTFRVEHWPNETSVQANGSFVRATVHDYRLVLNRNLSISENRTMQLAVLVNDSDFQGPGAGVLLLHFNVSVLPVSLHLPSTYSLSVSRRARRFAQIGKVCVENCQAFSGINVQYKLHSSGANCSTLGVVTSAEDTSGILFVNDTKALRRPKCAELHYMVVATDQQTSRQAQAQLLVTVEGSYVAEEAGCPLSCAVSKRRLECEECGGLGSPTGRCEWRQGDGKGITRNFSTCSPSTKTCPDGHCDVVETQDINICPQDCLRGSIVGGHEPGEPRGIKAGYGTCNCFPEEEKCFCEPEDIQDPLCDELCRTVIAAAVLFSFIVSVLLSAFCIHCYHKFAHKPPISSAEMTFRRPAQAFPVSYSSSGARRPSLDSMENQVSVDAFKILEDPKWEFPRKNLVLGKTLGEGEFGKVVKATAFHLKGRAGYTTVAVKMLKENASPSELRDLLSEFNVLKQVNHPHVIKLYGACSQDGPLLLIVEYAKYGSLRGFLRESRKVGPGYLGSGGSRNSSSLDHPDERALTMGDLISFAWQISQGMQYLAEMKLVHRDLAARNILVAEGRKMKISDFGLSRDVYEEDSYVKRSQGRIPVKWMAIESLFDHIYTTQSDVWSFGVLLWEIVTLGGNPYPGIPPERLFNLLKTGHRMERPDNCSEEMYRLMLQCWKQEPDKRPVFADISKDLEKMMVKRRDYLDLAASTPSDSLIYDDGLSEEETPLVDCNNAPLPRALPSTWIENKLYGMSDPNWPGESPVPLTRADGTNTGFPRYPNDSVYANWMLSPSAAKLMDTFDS
Chain of Casein kinase I isoform delta (Homo sapiens) (P48730 whole entry, looked up, canonical isoform): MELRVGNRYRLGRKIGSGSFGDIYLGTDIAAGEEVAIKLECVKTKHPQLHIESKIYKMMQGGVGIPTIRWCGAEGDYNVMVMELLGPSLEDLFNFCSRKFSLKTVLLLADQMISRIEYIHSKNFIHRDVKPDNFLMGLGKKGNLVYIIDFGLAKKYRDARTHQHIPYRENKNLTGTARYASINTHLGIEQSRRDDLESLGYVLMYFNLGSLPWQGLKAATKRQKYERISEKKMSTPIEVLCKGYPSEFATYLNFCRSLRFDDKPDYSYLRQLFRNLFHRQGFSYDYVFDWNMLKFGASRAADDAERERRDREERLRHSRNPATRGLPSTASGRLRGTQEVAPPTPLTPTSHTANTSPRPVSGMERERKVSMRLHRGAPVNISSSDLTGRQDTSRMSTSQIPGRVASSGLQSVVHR
Chain of Dual specificity protein kinase CLK2 (Homo sapiens) (P49760 whole entry, looked up): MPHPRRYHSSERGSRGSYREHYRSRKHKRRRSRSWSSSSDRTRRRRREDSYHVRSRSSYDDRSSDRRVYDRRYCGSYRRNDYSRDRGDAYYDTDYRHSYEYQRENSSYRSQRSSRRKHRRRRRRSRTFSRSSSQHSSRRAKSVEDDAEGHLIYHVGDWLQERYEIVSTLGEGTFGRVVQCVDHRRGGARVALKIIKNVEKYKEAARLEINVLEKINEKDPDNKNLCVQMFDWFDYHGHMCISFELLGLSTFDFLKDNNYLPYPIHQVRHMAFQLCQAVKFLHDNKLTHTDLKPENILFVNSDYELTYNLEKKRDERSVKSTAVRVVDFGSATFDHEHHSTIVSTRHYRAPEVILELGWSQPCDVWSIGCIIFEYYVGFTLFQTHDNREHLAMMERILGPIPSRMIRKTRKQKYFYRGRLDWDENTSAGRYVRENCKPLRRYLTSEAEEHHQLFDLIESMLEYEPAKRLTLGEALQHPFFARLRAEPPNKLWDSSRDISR
Chain of Protein kinase C zeta type (Homo sapiens) (Q05513 whole entry): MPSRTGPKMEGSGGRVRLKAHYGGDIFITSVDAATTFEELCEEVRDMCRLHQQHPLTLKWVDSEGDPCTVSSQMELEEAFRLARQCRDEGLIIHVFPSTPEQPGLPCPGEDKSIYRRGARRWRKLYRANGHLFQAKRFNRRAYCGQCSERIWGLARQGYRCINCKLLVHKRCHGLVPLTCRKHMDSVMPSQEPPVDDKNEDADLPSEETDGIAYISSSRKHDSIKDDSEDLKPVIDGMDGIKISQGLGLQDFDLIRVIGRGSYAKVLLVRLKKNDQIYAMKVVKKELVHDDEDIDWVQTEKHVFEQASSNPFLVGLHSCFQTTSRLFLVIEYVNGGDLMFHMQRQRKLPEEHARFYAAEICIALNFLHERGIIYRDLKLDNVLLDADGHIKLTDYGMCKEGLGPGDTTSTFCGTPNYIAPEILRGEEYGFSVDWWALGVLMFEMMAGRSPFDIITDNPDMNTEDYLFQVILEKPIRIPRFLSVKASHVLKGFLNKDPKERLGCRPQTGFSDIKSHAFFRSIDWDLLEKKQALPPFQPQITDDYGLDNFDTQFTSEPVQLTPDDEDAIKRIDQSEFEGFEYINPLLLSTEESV

As usually defined, the IC50 is the point on the concentration scale where inhibition reaches its midpoint. Turning to `CCc1ccccc1C(=O)Nc1n[nH]c2c(C)c(F)c(C3C(C#N)=C(C)N(C)C(C)=C3C#N)cc12` [BAY-3827], the % residual kinase activity in test [1] is 23%; in test [2], 66%; in [3] it was 93%; in [4], 100%; in test [6], 91%; in test [7] it was 99%. Moreover, the % residual kinase activity is 94% in test [9]; 98% in test [10]; 92% in test [11]; 90% in [12]; 91% in test [14]; 94% in [15]. The IC50 in [5] is 0.0091 µM (active). Besides, the “Cell Proliferation IC50” value in test [8] was 10.3 µM; in [13], 21.3 µM.

A word on the inhibition: it is the relative decrease from the control value, in per cent. Regarding `CC1=C(C#N)C(c2ccc3c(c2)c(NC(=O)c2ccccc2C)nn3C)C(C#N)=C(C)N1` [BAY-974], the inhibition in test [16] was -3.33%.
